Experimental data from ChEMBL document CHEMBL1201862, “PubChem BioAssay data set” (2004).
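Following 48 hours of exposure in 96-well plates, responses at five concentrations were used to interpolate endpoints linearly. GI50 = concentration required for 50% inhibition of growth.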 Activity calls are given as the source filed them. Cut-off read from the data, not from the text of the source: active = GI50 up to about 1.1 µM and inactive = higher.

What was measured:
Experiment in all cases: NCI tumour cell line growth inhibition, 48 h
[1] = system: K562
[2] = system: T47D
[3] = system: SNB-75
[4] = system: OVCAR-8
[5] = system: OVCAR-3
[6] = system: NCI-H522
[7] = system: HOP-92
[8] = system: A498
[9] = system: TK-10
[10] = system: U-251
[11] = system: M14
[12] = system: RPMI-8226
[13] = system: HT-29
[14] = system: HCT-116
[15] = system: MDA-N
[16] = system: SF-295
[17] = system: SK-MEL-2
[18] = system: PC-3
[19] = system: Malme-3M
[20] = system: RXF 393
[21] = system: EKVX
[22] = system: DU-145
[23] = system: HCC 2998
[24] = system: UACC-257
[25] = system: MCF7
[26] = system: NCI-H23
[27] = system: ACHN
[28] = system: BT-549
[29] = system: COLO 205
[30] = system: MDA-MB-231
[31] = system: SK-MEL-5
[32] = system: UO-31
[33] = system: NCI-H460
[34] = system: MDA-MB-435
[35] = system: SK-OV-3
[36] = system: OVCAR-4
[37] = system: IGROV-1
[38] = system: HOP-62
[39] = system: SW-620
[40] = system: MOLT-4
[41] = system: NCI/ADR-RES
[42] = system: KM12
[43] = system: CAKI-1
[44] = system: HCT-15
[45] = system: SF-268
[46] = system: SNB-19
[47] = system: Hs-578T
[48] = system: UACC-62
[49] = system: 786-0
[50] = system: OVCAR-5
[51] = system: SK-MEL-28
[52] = system: A549
[53] = system: LOX IMVI
[54] = system: HL-60
[55] = system: NCI-H226
[56] = system: SF-539
[57] = system: SN12C
[58] = system: CCRF-CEM

Measured: GI50

N#CC(Cc1ccccc1Br)N(CCC1=CCCCC1)C(c1ccccc1)c1ccccc1 (configuration not stated)
50.2 µM: [44]
inactive: [1] 44.3 µM | [2] 38.3 µM | [3] > 100 µM | [4] 76 µM | [5] 75.5 µM | [6] 25.9 µM | [7] 29.7 µM | [8] > 100 µM | [9] > 100 µM | [10] 83.8 µM | [11] 37.9 µM | [12] 31.7 µM | [13] 32.9 µM | [14] 32.8 µM | [15] 41.4 µM | [16] 58.7 µM | [17] > 100 µM | [18] > 100 µM | [19] > 100 µM | [20] 71.6 µM | [21] 51.4 µM | [22] > 100 µM | [23] 18.6 µM | [24] 61.8 µM | [25] 52.4 µM | [26] 27.8 µM | [27] > 100 µM | [28] > 100 µM | [29] 50.8 µM | [30] > 100 µM | [31] 46 µM | [32] 83.2 µM | [33] 57.3 µM | [34] 30.4 µM | [35] > 100 µM | [36] 94 µM | [37] 52.1 µM | [38] > 100 µM | [39] 73.8 µM | [40] 72.3 µM | [41] > 100 µM | [42] 64.9 µM | [43] > 100 µM | [45] > 100 µM | [46] > 100 µM | [47] > 100 µM | [48] 97.1 µM | [49] > 100 µM | [50] > 100 µM | [51] > 100 µM | [52] 93.3 µM

O=c1[nH]nc(Cc2ccc(Cl)cc2)n1CCO
inactive: [1] > 100 µM | [53] > 100 µM | [2] > 100 µM | [4] > 100 µM | [5] > 100 µM | [54] > 100 µM | [6] > 100 µM | [7] > 100 µM | [8] > 100 µM | [9] > 100 µM | [10] > 100 µM | [11] > 100 µM | [12] > 100 µM | [13] > 100 µM | [14] > 100 µM | [55] > 100 µM | [15] > 100 µM | [16] > 100 µM | [17] > 100 µM | [18] > 100 µM | [19] > 100 µM | [21] > 100 µM | [22] > 100 µM | [23] > 100 µM | [24] > 100 µM | [25] > 100 µM | [26] > 100 µM | [27] > 100 µM | [28] > 100 µM | [29] > 100 µM | [56] > 100 µM | [30] > 100 µM | [31] > 100 µM | [32] > 100 µM | [33] > 100 µM | [57] > 100 µM | [34] > 100 µM | [35] > 100 µM | [36] > 100 µM | [37] > 100 µM | [39] > 100 µM | [40] > 100 µM | [41] > 100 µM | [42] > 100 µM | [43] > 100 µM | [45] > 100 µM | [46] > 100 µM | [47] > 100 µM | [48] > 100 µM | [49] > 100 µM | [50] > 100 µM | [51] > 100 µM | [52] > 100 µM
> 100 µM: [44]

CO/N=C/c1c(-c2ccc(Cl)cc2)c(/C=N/OC)n2c1sc1ccccc12
> 100 µM: [44]
inactive: [1] > 100 µM | [53] > 100 µM | [2] 21.2 µM | [3] > 100 µM | [4] > 100 µM | [5] > 100 µM | [54] 32 µM | [6] > 100 µM | [7] 8.49 µM | [9] > 100 µM | [10] > 100 µM | [13] 81.8 µM | [14] > 100 µM | [15] > 100 µM | [16] > 100 µM | [17] > 100 µM | [18] > 100 µM | [19] > 100 µM | [20] > 100 µM | [21] > 100 µM | [22] > 100 µM | [23] > 100 µM | [24] > 100 µM | [25] > 100 µM | [58] 70.1 µM | [26] > 100 µM | [27] > 100 µM | [28] > 100 µM | [29] > 100 µM | [30] > 100 µM | [31] > 100 µM | [32] > 100 µM | [33] > 100 µM | [57] > 100 µM | [34] > 100 µM | [35] > 100 µM | [36] 83 µM | [37] > 100 µM | [38] > 100 µM | [39] > 100 µM | [40] 45.5 µM | [41] > 100 µM | [42] > 100 µM | [43] > 100 µM | [45] > 100 µM | [46] > 100 µM | [47] > 100 µM | [48] > 100 µM | [49] > 100 µM | [50] > 100 µM | [51] > 100 µM | [52] > 100 µM

O=S(=O)(N1CCCCN(S(=O)(=O)C(F)(F)F)CCCN(S(=O)(=O)C(F)(F)F)CCCN(S(=O)(=O)C(F)(F)F)CCCCN(S(=O)(=O)C(F)(F)F)CCCN(S(=O)(=O)C(F)(F)F)CCC1)C(F)(F)F
68.4 µM: [44]
inactive: [1] > 100 µM | [53] 80.5 µM | [2] 77.4 µM | [3] 37.9 µM | [4] 36.4 µM | [5] 38.4 µM | [54] > 100 µM | [6] 35.2 µM | [7] 31 µM | [8] 52.6 µM | [9] 99.5 µM | [10] 21.6 µM | [11] 63.7 µM | [13] > 100 µM | [14] 87.1 µM | [55] 81.8 µM | [15] > 100 µM | [16] 22.9 µM | [17] 76.4 µM | [18] > 100 µM | [19] 23.2 µM | [20] 28.6 µM | [21] 72.3 µM | [22] > 100 µM | [23] > 100 µM | [24] 49.3 µM | [25] > 100 µM | [58] > 100 µM | [26] 56.5 µM | [27] > 100 µM | [28] 23.7 µM | [29] > 100 µM | [56] 28.9 µM | [30] > 100 µM | [31] 35 µM | [32] > 100 µM | [33] 30.9 µM | [57] 35.8 µM | [34] 53.7 µM | [35] > 100 µM | [36] > 100 µM | [37] 35.6 µM | [38] 29.7 µM | [39] > 100 µM | [40] > 100 µM | [41] 53.2 µM | [42] > 100 µM | [43] 37.2 µM | [45] 31.1 µM | [46] 35.2 µM | [47] 30.3 µM | [48] 64.6 µM | [49] 18.2 µM | [50] > 100 µM | [51] > 100 µM | [52] > 100 µM

CN1C/C(=C\c2cccs2)C2=NN(C)C(c3cccs3)C2C1 (configuration not stated)
> 100 µM: [44]
inactive: [1] 29.3 µM | [53] > 100 µM | [2] 44.4 µM | [4] > 100 µM | [5] 77.8 µM | [54] 3.05 µM | [6] 81.3 µM | [7] 20.5 µM | [8] 46.7 µM | [9] > 100 µM | [10] 22.8 µM | [11] 97.7 µM | [12] 24.8 µM | [13] 61.1 µM | [14] 51.4 µM | [55] > 100 µM | [15] > 100 µM | [16] > 100 µM | [17] 24 µM | [18] 19 µM | [19] > 100 µM | [20] > 100 µM | [21] > 100 µM | [22] > 100 µM | [23] 42.1 µM | [24] > 100 µM | [25] 75.5 µM | [58] 72.8 µM | [26] > 100 µM | [27] > 100 µM | [28] > 100 µM | [29] > 100 µM | [30] 67.9 µM | [31] 58.3 µM | [32] 75.7 µM | [33] 86.5 µM | [57] 95.7 µM | [34] > 100 µM | [35] > 100 µM | [36] 35.8 µM | [37] 32.4 µM | [38] > 100 µM | [39] > 100 µM | [40] 28.8 µM | [41] > 100 µM | [42] > 100 µM | [43] > 100 µM | [45] > 100 µM | [46] > 100 µM | [47] > 100 µM | [48] > 100 µM | [49] > 100 µM | [50] > 100 µM | [51] > 100 µM | [52] 89.3 µM
